# Active and inactive are the calls of the source. The rule behind the calls is not given here.
# Target: C-C chemokine receptor type 2 (Mus musculus) (UniProt P51683)
# Assay: Antagonist activity at CCR2 in mouse monocytes assessed as inhibition of MCP1-induced calcium flux
# Format: functional, cell-based
# Conditions: not given
# Sequence of C-C chemokine receptor type 2 (Mus musculus) (P51683 whole entry, looked up): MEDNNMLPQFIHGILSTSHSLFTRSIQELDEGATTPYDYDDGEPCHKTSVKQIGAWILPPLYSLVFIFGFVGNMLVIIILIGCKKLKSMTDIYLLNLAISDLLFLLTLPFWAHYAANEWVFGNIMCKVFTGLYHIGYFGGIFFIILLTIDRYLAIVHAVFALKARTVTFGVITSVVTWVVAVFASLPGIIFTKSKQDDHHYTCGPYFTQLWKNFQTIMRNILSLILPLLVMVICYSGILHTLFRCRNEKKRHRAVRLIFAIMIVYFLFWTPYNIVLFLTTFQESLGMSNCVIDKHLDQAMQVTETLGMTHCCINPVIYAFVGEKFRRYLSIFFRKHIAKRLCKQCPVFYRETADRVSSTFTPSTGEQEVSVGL
row,Activity,SMILES
1,Active,CCC[C@H](O)[C@H](CNCc1ccc(C)cc1C)NC(=O)CNC(=O)c1cc(C(F)(F)F)ccc1NC(=O)NCC

# Species: Mus musculus
# Assay: Selectivity for mouse CCR2 over mouse CCR1
# Conditions: not given
row,Selectivity ratio,SMILES
1,> 1000,CCC[C@H](O)[C@H](CNCc1ccc(C)cc1C)NC(=O)CNC(=O)c1cc(C(F)(F)F)ccc1NC(=O)NCC

# Target: T1, C-C chemokine receptor type 2 (Homo sapiens, UniProt P41597)
# Assay: Displacement of [125-I]MCP1 from CCR2 on human PBMC at 1 uM
# Conditions: not given
# Target sequence in this assay (P41597 whole entry, looked up): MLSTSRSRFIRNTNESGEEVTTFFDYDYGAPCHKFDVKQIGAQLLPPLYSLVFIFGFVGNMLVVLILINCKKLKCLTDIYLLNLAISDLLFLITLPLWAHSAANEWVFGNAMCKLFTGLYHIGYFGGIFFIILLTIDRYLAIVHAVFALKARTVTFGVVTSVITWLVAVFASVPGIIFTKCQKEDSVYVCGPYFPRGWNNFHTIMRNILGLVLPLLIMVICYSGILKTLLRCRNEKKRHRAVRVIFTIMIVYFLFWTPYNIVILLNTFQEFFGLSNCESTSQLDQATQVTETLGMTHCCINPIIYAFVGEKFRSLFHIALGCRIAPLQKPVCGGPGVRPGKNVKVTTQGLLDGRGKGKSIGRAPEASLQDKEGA
row,inhibition (INH) [%],SMILES
1,6,CCC[C@H](O)[C@H](CNCc1ccc(C)cc1C)NC(=O)Cc1nc2ccc(C(F)(F)F)cc2[nH]1

# Target: C-C chemokine receptor type 2 (Mus musculus) (UniProt P51683)
# Assay: Binding affinity to mouse CCR2
# Conditions: not given
row,inhibition,SMILES
1,inactive,Cc1ccc(CNC[C@H](NC(=O)CNC(=O)c2cccc(C(F)(F)F)c2)[C@H](O)CC(C)C)c(C)c1
2,Active,CCC[C@H](O)[C@H](CNCc1ccc(C)cc1C)NC(=O)CNC(=O)c1cc(C(F)(F)F)ccc1N
3,Active,CCC[C@H](O)[C@H](CNCc1ccc(C)cc1C)NC(=O)CNC(=O)c1cc(C(F)(F)F)ccc1NC(=O)NCC
4,Active,CCC[C@H](O)[C@H](CNCc1ccc(C)cc1C)NC(=O)CNC(=O)c1cc(C(F)(F)F)ccc1NC(=O)OC(C)(C)C
5,inactive,Cc1ccc(CNC[C@H](NC(=O)CNC(=O)c2cccc(C(F)(F)F)c2)[C@@H](O)CC(C)C)c(C)c1
6,inactive,CCC[C@@H](O)[C@H](CNCc1ccc(C)cc1C)NC(=O)CNC(=O)c1cc(C(F)(F)F)ccc1N
7,Active,CCC[C@H](O)[C@H](CNCc1ccc(C)cc1C)NC(=O)CNC(=O)c1cccc(C(F)(F)F)c1

# Test system: not listed separately
# Assay: Oral bioavailability in mouse
# Format: ADME, organism-based
# Conditions: in vivo
row,bioavailability [%],SMILES
1,29,CCC[C@H](O)[C@H](CNCc1ccc(C)cc1C)NC(=O)CNC(=O)c1cc(C(F)(F)F)ccc1NC(=O)NCC

# Target: T1, C-C chemokine receptor type 2
# Assay: Displacement of [125-I]MCP1 from CCR2 on human PBMC
# Conditions: not given
# Target sequence in this assay (P41597 whole entry): as the sequence (P41597 whole entry, looked up) above
row,IC50 [nM],SMILES
1,65,Cc1ccc(CNC[C@H](NC(=O)CNC(=O)c2cccc(C(F)(F)F)c2)[C@@H](O)C(C)C)c(C)c1
2,710,CCC[C@H](O)[C@H](CNCc1ccc(C)cc1C)NC(=O)CC(=O)Nc1cc(Br)cc(C(F)(F)F)c1
3,3.4,CCC[C@H](O)[C@H](CNCc1ccc(C)cc1C)NC(=O)CNC(=O)c1cc(C(F)(F)F)ccc1N
4,240,CCC[C@H](O)[C@H](CNCc1ccc(C)cc1C)NC(=O)CC(=O)Nc1cc(C(F)(F)F)ccc1NC(=O)OC(C)(C)C
5,690,CCC[C@H](O)[C@H](CNCc1ccc(C)cc1C)NC(=O)CC(=O)Nc1cc(C(F)(F)F)cc(C(F)(F)F)c1
6,217,CCC[C@H](O)[C@H](CNCc1ccc(C)cc1C)NC(=O)CC(=O)Nc1cc(C(F)(F)F)ccc1OC
7,7.1,CCC[C@H](O)[C@H](CNCc1ccc(C)cc1C)NC(=O)CC(=O)Nc1cc(NC)cc(C(F)(F)F)c1
8,2.5,CCC[C@H](O)[C@H](CNCc1ccc(C)cc1C)NC(=O)CNC(=O)c1cc(C(F)(F)F)ccc1NC(=O)N1CCNCC1
9,9.3,CCC[C@H](O)[C@H](CNCc1ccc(C)cc1C)NC(=O)CNC(=O)c1cc(C(F)(F)F)ccc1NCc1ccccc1
10,11,CCC[C@H](OC)[C@H](CNCc1ccc(C)cc1C)NC(=O)CNC(=O)c1cc(C(F)(F)F)ccc1N
11,17,CC[C@H](O)[C@H](CNCc1ccc(C)cc1C)NC(=O)CNC(=O)c1cc(C(F)(F)F)ccc1N
12,5.8,CCC[C@H](O)[C@H](CNCc1ccc(C)cc1C)NC(=O)CNC(=O)c1cc(C(F)(F)F)ccc1NC(=O)N1CCCC1
13,43,CCC[C@H](O)[C@H](CNCc1ccc(C)cc1C)NC(=O)CC(=O)Nc1cc(C(F)(F)F)ccc1N
14,158,CCC[C@H](O)[C@H](CNCc1ccc(C)cc1C)NC(=O)CC(=O)Nc1cc(C(=O)NCC)cc(C(F)(F)F)c1
15,3.6,CCC[C@H](O)[C@H](CNCc1ccc(C)cc1C)NC(=O)CNC(=O)c1cc(C(F)(F)F)ccc1NC(=O)NCC
16,180,CCCC[C@@H](O)[C@H](CNCc1ccc(C)cc1C)NC(=O)CNC(=O)c1cccc(C(F)(F)F)c1
17,7.4,CCC[C@H](O)[C@H](CNCc1ccc(C)cc1C)NC(=O)CNC(=O)c1cc(C(F)(F)F)ccc1NC(C)(C)C
18,390,CC[C@@H](O)[C@H](CNCc1ccc(C)cc1C)NC(=O)CNC(=O)c1cccc(C(F)(F)F)c1
19,64,CC[C@H](O)[C@H](CNCc1ccc(C)cc1C)NC(=O)CNC(=O)c1cccc(C(F)(F)F)c1
20,1700,CCC[C@H](O)[C@H](CN(Cc1ccc(C)cc1C)C(C)C)NC(=O)CNC(=O)c1cc(C(F)(F)F)ccc1NC(=O)NC(C)C
21,10,CCC[C@H](O)[C@H](CNCc1ccc(C)cc1C)NC(=O)CNc1n[nH]c2ccc(C(F)(F)F)cc12
22,4.5,CCC[C@H](O)[C@H](CNCc1ccc(C)cc1C)NC(=O)CC(=O)Nc1cc(NCC)cc(C(F)(F)F)c1
23,40,CCC[C@H](O)[C@H](CNCc1ccc(C)cc1C)NC(=O)CC(=O)Nc1cc(NC(=O)NCC)cc(C(F)(F)F)c1
24,5,CCCC[C@H](O)[C@H](CNCc1ccc(C)cc1C)NC(=O)CNC(=O)c1cccc(C(F)(F)F)c1
25,100,Cc1ccc(CNC[C@H](NC(=O)CNC(=O)c2cccc(C(F)(F)F)c2)[C@@H](O)c2ccccc2)c(C)c1
26,440,CCC[C@H](O)[C@H](CN(C)Cc1ccc(C)cc1C)NC(=O)CNC(=O)c1cc(C(F)(F)F)ccc1NC(=O)NC(C)C

row,IC50 [nM],SMILES
1,28000,CCC[C@H](O)[C@H](CNCc1ccc(C)cc1C)N1CC[C@@H](NC(=O)c2cc(C(F)(F)F)ccc2NC(=O)OC(C)(C)C)C1=O
2,4,CCC[C@H](O)[C@H](CNCc1ccc(C)cc1C)NC(=O)CNC(=O)c1cc(C(F)(F)F)ccc1NC(=O)OC(C)(C)C
3,87,Cc1ccc(CNC[C@H](NC(=O)CNC(=O)c2cc(C(F)(F)F)ccc2N)C2(O)CCCC2)c(C)c1
4,160,Cc1ccc(CNC[C@H](NC(=O)CNC(=O)c2cc(C(F)(F)F)ccc2N)C(C)(C)O)c(C)c1
5,3.8,CCC[C@H](O)[C@H](CNCc1ccc(C)cc1C)NC(=O)CC(=O)Nc1cc(N)cc(C(F)(F)F)c1
6,7,CCC[C@@H](O)[C@H](CNCc1ccc(C)cc1C)NC(=O)CNC(=O)c1cc(C(F)(F)F)ccc1N
7,1230,CCC[C@H](O)[C@H](CNCc1ccc(C)cc1C)N1CC[C@H](NC(=O)c2cc(N)cc(C(F)(F)F)c2)C1=O
8,20,CCCNc1cc(NC(=O)CC(=O)N[C@@H](CNCc2ccc(C)cc2C)[C@@H](O)CCC)cc(C(F)(F)F)c1
9,19,Cc1ccc(CNC[C@H](NC(=O)CNC(=O)c2cccc(C(F)(F)F)c2)[C@@H](O)CC(C)(C)C)c(C)c1
10,24,CCC[C@H](O)[C@H](CNCc1ccc(C)cc1C)NC(=O)CC(=O)Nc1cc(OC)cc(C(F)(F)F)c1
11,6.7,CCC[C@H](O)[C@H](CNCc1ccc(C)cc1C)NC(=O)CNC(=O)c1cc(C(F)(F)F)ccc1NC(=O)NC
12,3.8,CCC[C@H](O)[C@H](CNCc1ccc(C)cc1C)NC(=O)CNC(=O)c1cc(C(F)(F)F)ccc1NC(=O)N1CCOCC1
13,900,CCC[C@H](O)[C@H](CNCc1ccc(C)cc1C)N1CC[C@H](NC(=O)c2cc(C(F)(F)F)ccc2N)C1=O
14,41,CCC(O)(CC)[C@H](CNCc1ccc(C)cc1C)NC(=O)CNC(=O)c1cc(C(F)(F)F)ccc1N
15,5.3,CCC[C@H](O)[C@H](CNCc1ccc(C)cc1C)NC(=O)CNC(=O)c1cc(C(F)(F)F)ccc1NC(C)C
16,340,CCC[C@H](O)[C@H](CNCc1ccc(C)cc1C)NC(=O)CC(=O)Nc1cc(NC(=O)OC(C)(C)C)cc(C(F)(F)F)c1
17,100,Cc1ccc(CNC[C@H](NC(=O)CNC(=O)c2cccc(C(F)(F)F)c2)[C@H](O)C(C)C)c(C)c1
18,600,Cc1ccc(CNC[C@H](NC(=O)CNC(=O)c2cccc(C(F)(F)F)c2)[C@H](O)CC(C)(C)C)c(C)c1
19,27,CCCC(O)(CCC)[C@H](CNCc1ccc(C)cc1C)NC(=O)CNC(=O)c1cc(C(F)(F)F)ccc1N
20,49,CCC[C@H](O)[C@H](CNCc1ccc(C)cc1C)NC(=O)Cc1nc2c(C(F)(F)F)cccc2[nH]1
21,2.1,CCC[C@H](O)[C@H](CNCc1ccc(C)cc1C)NC(=O)CNC(=O)c1cc(C(F)(F)F)ccc1NC(=O)N1CCC1
22,28,CCC[C@H](O)[C@H](CNCc1ccc(C)cc1C)NC(=O)CC(=O)Nc1cccc(C(F)(F)F)c1
23,1040,CCC[C@H](O)[C@H](CNCc1ccc(C)cc1C)N1CC[C@H](NC(=O)c2cc(C(F)(F)F)ccc2NC(=O)OC(C)(C)C)C1=O
24,> 1000,Cc1ccc(CNC[C@H](NC(=O)CNC(=O)c2cccc(C(F)(F)F)c2)[C@H](O)c2ccccc2)c(C)c1
25,6.7,CCC[C@H](O)[C@H](CNCc1ccc(C)cc1C)NC(=O)CNC(=O)c1cc(N)cc(C(F)(F)F)c1

# Test system: not listed separately
# Assay: Clearance in mouse
# Format: ADME, organism-based
# Conditions: in vivo
row,clearance [mL/min/kg],SMILES
1,85,CCC[C@H](O)[C@H](CNCc1ccc(C)cc1C)NC(=O)CNC(=O)c1cc(C(F)(F)F)ccc1NC(=O)NCC

# Species: Mus musculus
# Assay: Selectivity for mouse CCR2 over mouse CCR2
# Conditions: not given
row,Selectivity ratio,SMILES
1,> 1000,CCC[C@H](O)[C@H](CNCc1ccc(C)cc1C)NC(=O)CNC(=O)c1cc(C(F)(F)F)ccc1NC(=O)NCC

# Target: C-C chemokine receptor type 5 (Mus musculus, UniProt P51682)
# Assay: Binding affinity to mouse CCR5
# Conditions: not given
# Sequence of C-C chemokine receptor type 5 (P51682 whole entry): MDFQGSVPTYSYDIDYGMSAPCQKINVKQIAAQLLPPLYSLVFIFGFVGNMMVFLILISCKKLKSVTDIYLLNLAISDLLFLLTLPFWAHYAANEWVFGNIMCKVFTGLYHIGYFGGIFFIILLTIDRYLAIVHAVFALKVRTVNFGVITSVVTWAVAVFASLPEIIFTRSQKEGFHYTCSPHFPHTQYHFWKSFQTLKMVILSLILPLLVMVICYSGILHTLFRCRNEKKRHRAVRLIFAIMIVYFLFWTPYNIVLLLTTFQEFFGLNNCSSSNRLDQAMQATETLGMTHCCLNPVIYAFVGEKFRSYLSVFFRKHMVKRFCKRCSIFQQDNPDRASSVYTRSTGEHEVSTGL
row,IC50 [nM],SMILES
1,86,CCC[C@H](O)[C@H](CNCc1ccc(C)cc1C)NC(=O)CNC(=O)c1cc(C(F)(F)F)ccc1NC(=O)NCC

# Target: C-C chemokine receptor type 2 (Mus musculus) (UniProt P51683)
# Assay: Antagonist activity at CCR2 in mouse monocytes assessed as inhibition of MCP1-induced cAMP depression
# Format: functional, cell-based
# Conditions: not given
row,Activity,SMILES
1,Active,CCC[C@H](O)[C@H](CNCc1ccc(C)cc1C)NC(=O)CNC(=O)c1cc(C(F)(F)F)ccc1NC(=O)NCC
